Measurements from doi:10.1101/2025.07.30.667614, “Steric control of signaling bias in the immunometabolic receptor GPR84” (bioRxiv, 2025).

Assay: pKa measurement (Sirius T3 UV-metric and pH-metric titration)
Assay type: physicochemical
Conditions: 25 °C, ionic strength 0.15 M; read-out: measured pKa of the hydroxyl group
Description: OX04529 pKa was determined using a UV-metric titration method on a Sirius T3 with a combination Ag/AgCl pH electrode. 5 μL of OX04529 stock solution was added to 25 μL of a neutral linear buffer. The sample was then pre-acidified to pH < 2.0 using 0.5 M HCl and titrated three times until pH > 12.0 using 0.5 M KOH. Titrations were carried out at a constant ionic strength of 0.15 M (adjusted with KCl) and maintained at 25.0 ±0.5 °C. UV absorbance data across varying wavelengths and pH values were recorded. Molar absorption profiles and species distribution plots were generated in the Sirius T3 software, from which apparent pKa value was calculated.
OX04529 pKa was measured using pH-metric titration on the Sirius T3 system. The solution was pre-acidified to pH < 3.0 with 0.5 M HCl and titrated three times until pH > 11.0 using 0.5 M KOH.

SMILES: [O-][n+]1cc(O)cc(CCc2ccc(Cl)c(C(F)(F)F)c2)c1 [OX04529]
- pKa: 6.26
